“And” between values parts separate entries of the source, which are not always exact repeats. Equal entries are not always repeated.
How the values were obtained:
[1] = target: T1, OAT3 (Homo sapiens, UniProt Q8TCC7)
T1 sequence (Q8TCC7 1-542): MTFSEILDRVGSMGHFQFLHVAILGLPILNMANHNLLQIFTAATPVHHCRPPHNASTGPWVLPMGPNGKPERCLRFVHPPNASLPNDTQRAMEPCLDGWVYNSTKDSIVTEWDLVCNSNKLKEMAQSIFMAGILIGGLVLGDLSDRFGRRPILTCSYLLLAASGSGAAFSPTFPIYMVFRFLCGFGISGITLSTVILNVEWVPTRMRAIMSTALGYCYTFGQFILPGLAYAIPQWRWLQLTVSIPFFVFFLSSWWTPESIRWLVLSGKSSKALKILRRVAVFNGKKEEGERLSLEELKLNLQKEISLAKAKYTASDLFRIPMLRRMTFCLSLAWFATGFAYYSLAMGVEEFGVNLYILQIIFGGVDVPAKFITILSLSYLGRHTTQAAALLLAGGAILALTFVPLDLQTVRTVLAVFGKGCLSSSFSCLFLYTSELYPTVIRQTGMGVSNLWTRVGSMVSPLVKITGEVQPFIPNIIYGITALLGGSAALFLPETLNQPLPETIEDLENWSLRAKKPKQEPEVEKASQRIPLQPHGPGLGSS

[2] = CYP reaction phenotyping: CYP control (negative control without CYP enzymes); conditions: CYP Control (without CYP enzymes) 0.1 mg protein/mL, TA 5 μM
Protocol: The reaction was initiated by the addition of NADPH, followed by incubation at 37° C.

[3] = target: T2, MATE1 (Homo sapiens, UniProt Q96FL8)
T2 sequence (Q96FL8 1-570): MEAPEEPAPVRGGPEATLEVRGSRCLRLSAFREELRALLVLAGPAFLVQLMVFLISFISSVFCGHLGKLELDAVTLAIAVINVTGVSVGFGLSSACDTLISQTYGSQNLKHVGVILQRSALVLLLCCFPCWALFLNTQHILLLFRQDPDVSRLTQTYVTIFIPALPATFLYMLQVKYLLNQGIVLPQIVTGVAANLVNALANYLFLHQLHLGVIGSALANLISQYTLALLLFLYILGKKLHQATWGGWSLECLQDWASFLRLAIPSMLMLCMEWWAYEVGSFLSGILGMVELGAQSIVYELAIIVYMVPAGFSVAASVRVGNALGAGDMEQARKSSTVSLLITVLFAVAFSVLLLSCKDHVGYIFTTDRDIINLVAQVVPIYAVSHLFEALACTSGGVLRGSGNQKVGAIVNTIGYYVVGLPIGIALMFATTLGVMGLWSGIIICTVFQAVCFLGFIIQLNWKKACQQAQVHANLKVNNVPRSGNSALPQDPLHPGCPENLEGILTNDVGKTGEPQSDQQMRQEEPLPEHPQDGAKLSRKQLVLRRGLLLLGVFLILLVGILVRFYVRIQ

[4] = target: T3, human liver microsomes (HLM) (Homo sapiens, UniProt P20813); test: CYP reaction phenotyping using HLM and chemical inhibitors (% remaining); type: in vitro ADME; conditions: human, microsomes, 5 μM, pH 7.4
T3 construct: from tissue; host or cells: pooled human liver microsomes
T3 sequence (P20813 1-491): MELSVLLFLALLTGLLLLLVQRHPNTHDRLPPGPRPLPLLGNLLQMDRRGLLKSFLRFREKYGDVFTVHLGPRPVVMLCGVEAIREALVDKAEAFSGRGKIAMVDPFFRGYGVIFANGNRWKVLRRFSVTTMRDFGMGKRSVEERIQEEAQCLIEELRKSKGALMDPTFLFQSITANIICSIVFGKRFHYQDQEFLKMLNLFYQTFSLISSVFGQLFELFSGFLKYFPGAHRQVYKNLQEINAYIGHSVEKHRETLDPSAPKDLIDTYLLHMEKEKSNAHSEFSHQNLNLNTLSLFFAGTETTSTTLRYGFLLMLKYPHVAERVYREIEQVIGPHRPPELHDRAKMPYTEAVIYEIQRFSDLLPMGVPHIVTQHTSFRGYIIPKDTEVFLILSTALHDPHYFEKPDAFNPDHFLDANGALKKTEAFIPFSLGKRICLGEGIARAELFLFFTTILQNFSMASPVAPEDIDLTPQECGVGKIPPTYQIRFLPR
Text: % Remaining of TA=100×At/A0
Where, At and A0 are the peak area ratio of TA to IS at time t and at time zero, respectively.

[5] = target: P-gp (Homo sapiens, UniProt P08183); test: P-gp IC50 assessment, bidirectional digoxin transport in C2BBe1 cells
Protocol: After 30 minutes, the pre-incubation solution was aspirated.

[6] = male, CD (Sprague-Dawley) IGS, rat, in vivo
[7] = Non-specific binding assessment, uptake transporter format (cell-free poly-D-lysine plates); type: in vitro ADME; conditions: cell-free poly-D-lysine-coated 24-well plates, without BSA pre-incubation, both matrices
Protocol: Two treatments (three wells each) were included: in the first treatment, the wells were pre-incubated for 5 minutes with HBSSg_7.4_BSA or HBSSg_8.5_BSA; in the second treatment, no pre-incubation was performed (Table 32). After the pre-incubation, the solution was aspirated, and dosing solution (500 μL) was added to each well. […] After the incubation, aliquots (200 μL) were withdrawn from each chamber, combined with an equal volume of acetonitrile containing IS, and stored at 4° C. until analysis.

[8] = target: T4, OCT2 (Homo sapiens, UniProt O15244)
T4 sequence (O15244 1-555): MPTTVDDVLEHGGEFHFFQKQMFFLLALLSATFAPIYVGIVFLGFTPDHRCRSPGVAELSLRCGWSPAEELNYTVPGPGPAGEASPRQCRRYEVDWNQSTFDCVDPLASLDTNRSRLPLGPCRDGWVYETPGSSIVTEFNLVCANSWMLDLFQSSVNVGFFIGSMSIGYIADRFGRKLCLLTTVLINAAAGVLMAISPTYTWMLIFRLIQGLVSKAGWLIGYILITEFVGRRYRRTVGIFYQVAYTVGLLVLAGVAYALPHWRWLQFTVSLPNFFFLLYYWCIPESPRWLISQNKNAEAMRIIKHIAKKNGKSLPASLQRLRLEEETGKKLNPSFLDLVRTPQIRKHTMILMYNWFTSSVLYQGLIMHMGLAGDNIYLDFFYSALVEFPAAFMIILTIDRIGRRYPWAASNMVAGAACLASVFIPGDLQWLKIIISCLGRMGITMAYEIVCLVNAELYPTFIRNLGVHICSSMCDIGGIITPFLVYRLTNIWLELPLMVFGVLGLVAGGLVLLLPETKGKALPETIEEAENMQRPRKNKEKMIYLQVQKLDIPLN

Sequence of P-gp (P08183 whole entry): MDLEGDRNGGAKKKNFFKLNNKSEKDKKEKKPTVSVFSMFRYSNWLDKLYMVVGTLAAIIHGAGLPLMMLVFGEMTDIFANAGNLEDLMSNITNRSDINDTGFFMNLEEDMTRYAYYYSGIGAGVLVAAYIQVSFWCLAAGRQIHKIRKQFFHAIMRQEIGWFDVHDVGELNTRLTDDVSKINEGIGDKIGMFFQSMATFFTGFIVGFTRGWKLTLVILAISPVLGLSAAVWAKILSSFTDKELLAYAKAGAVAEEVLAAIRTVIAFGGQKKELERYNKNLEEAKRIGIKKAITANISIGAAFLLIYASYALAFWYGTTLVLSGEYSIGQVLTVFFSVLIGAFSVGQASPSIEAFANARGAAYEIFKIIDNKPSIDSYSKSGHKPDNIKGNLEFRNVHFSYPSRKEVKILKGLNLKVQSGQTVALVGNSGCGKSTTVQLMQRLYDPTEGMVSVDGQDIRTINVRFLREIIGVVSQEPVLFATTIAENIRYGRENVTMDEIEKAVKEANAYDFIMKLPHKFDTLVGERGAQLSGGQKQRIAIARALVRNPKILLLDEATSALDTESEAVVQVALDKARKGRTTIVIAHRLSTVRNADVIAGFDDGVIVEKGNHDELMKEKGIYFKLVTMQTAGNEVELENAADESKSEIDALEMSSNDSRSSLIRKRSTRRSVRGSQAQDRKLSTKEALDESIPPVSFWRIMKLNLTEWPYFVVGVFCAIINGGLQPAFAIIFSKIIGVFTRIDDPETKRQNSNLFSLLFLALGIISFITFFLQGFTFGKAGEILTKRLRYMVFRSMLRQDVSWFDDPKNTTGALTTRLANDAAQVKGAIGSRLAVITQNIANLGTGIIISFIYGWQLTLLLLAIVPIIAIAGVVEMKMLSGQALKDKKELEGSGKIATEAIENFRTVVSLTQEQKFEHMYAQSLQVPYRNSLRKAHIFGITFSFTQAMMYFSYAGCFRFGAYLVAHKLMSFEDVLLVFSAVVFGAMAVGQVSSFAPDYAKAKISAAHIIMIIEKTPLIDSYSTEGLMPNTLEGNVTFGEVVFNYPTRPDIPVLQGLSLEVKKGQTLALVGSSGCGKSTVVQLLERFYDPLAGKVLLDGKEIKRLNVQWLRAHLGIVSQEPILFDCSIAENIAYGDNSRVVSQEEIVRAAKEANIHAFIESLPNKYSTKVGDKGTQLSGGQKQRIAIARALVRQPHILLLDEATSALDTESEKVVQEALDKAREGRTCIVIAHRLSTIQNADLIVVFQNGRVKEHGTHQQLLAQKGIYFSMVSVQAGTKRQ

SMILES | IC50 [1] | % Remaining of TA ([2]; 0 min) [%] | % Remaining of TA ([2]; 5 min) [%] | % Remaining of TA ([2]; 10 min) [%] | % Remaining of TA ([2]; 20 min) [%] | % Remaining of TA ([2]; 30 min) [%] | IC50 [3] [µM] | % Remaining of TA (n = 3) Average ([4]; 0 h) [%] | % Remaining of TA (n = 3) Average ([4]; 5 min) [%] | % Remaining of TA (n = 3) Average ([4]; 10 min) [%] | % Remaining of TA (n = 3) Average ([4]; 20 min) [%] | % Remaining of TA (n = 3) Average ([4]; 0.5 h) [%] | % Remaining of TA (n = 3) Average ([4]; 1 h) [%] | IC50 [5] [µM] | mean endogenous plasma levels over the 24 hour time course [6] [ng/mL] | recovery at 5 min [7] [%] | IC50 [8] [µM] | plasma concentrations remained quantifiable through [6] [h]
C[C@H](CCC(=O)NCCS(=O)(=O)O)[C@H]1CC[C@H]2[C@@H]3[C@@H](O)C[C@@H]4C[C@H](O)CC[C@]4(C)[C@H]3CC[C@]12C [TUDCA, tauroursodeoxycholic acid] | 54 to 162 µM and 5.4 to 162 µM | 100 | 99.4 | 97.9 | 95.9 | 93.7 | 270 to 810 | 100 | 112 | 112 | 122 | 116 | 102 | 222 to 667 | 130 to 222 | > 90 | > 162 | 
O=C(O)CCCc1ccccc1 [PB, sodium phenylbutyrate] | 4930 to 14800 µM |  |  |  |  |  | 24600 to 73900 |  |  |  |  |  |  | 1790 to 5370 |  | > 90 | > 14800 | 4

Source: patent US20230277630A1, “METHODS AND COMPOSITIONS FOR TREATING AMYOTROPHIC LATERAL SCLEROSIS” (Amylyx Pharmaceuticals, Inc., priority 2022, published 2023)
